Data: PubChem BioAssay AID1919016 (Molecular Pharmacology Branch, DTP, NCI, 2023)
pIC50: −log10 of the molar value.

System: NCI-H196 complex spheroid growth, percent test/control
Assay: Anticancer human tumor NCI-H196 cell line growth inhibition [AhR];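 also: seven days of drug exposure starting three days after plating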;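 as to viability, T/C: 100% = DMSO vehicle control wells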
Conditions: for pIC50: curve of first compound; for viability, T/C: stronger effect = lower value
How it was run: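 Agents were dosed in half-log steps down from roughly clinical Cmax, or from 10 microM where Cmax was unknown, alone and with AhR antagonists. Read-out: percent test/control growth of tumor spheroids containing HUVEC and MSC stromal cells.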

[1] = second compound 0.1 µM, first compound 0.0316 µM
[2] = second compound 0.1 µM, first compound 0.1 µM
[3] = second compound 0.1 µM, first compound 0.316 µM
[4] = second compound 0.1 µM, first compound 1 µM
[5] = second compound 0.1 µM, first compound 3.16 µM
[6] = second compound 0.1 µM, first compound 10 µM
[7] = second compound 0.316 µM, first compound 0.0316 µM
[8] = second compound 0.316 µM, first compound 0.1 µM
[9] = second compound 0.316 µM, first compound 0.316 µM
[10] = second compound 0.316 µM, first compound 1 µM
[11] = second compound 0.316 µM, first compound 3.16 µM
[12] = second compound 0.316 µM, first compound 10 µM
[13] = second compound 1 µM, first compound 0.0316 µM
[14] = second compound 1 µM, first compound 0.1 µM
[15] = second compound 1 µM, first compound 0.316 µM
[16] = second compound 1 µM, first compound 1 µM
[17] = second compound 1 µM, first compound 3.16 µM
[18] = second compound 1 µM, first compound 10 µM
[19] = second compound 3.16 µM, first compound 0.0316 µM
[20] = second compound 3.16 µM, first compound 0.1 µM
[21] = second compound 3.16 µM, first compound 0.316 µM
[22] = second compound 3.16 µM, first compound 1 µM
[23] = second compound 3.16 µM, first compound 3.16 µM
[24] = second compound 3.16 µM, first compound 10 µM
[25] = second compound 10 µM, first compound 0.0316 µM
[26] = second compound 10 µM, first compound 0.1 µM
[27] = second compound 10 µM, first compound 0.316 µM
[28] = second compound 10 µM, first compound 1 µM
[29] = second compound 10 µM, first compound 3.16 µM
[30] = second compound 10 µM, first compound 10 µM

| Compound | pIC50 (second compound 0.1 µM) | pIC50 (second compound 0.316 µM) | pIC50 (second compound 1 µM) | pIC50 (second compound 3.16 µM) | pIC50 (second compound 10 µM) | viability, T/C [1] [%] | viability, T/C [2] [%] | viability, T/C [3] [%] | viability, T/C [4] [%] | viability, T/C [5] [%] | viability, T/C [6] [%] | viability, T/C [7] [%] | viability, T/C [8] [%] | viability, T/C [9] [%] | viability, T/C [13] [%] | viability, T/C [14] [%] | viability, T/C [19] [%] | viability, T/C [20] [%] | viability, T/C [25] [%] | viability, T/C [26] [%] | also measured |
| --- | --- | --- | --- | --- | --- | --- | --- | --- | --- | --- | --- | --- | --- | --- | --- | --- | --- | --- | --- | --- | --- |
| COc1cccc2c1C(=O)c1c(O)c3c(c(O)c1C2=O)CC(O)(C(=O)CO)CC3OC1CC(N)C(O)C(C)O1 (stereo not given) + Cc1cncc(-c2nc(NCCc3c[nH]c4ccccc34)c3ncn(C(C)C)c3n2)c1 | 6.26 | 6.28 | 6.34 | 6.38 | 6.48 | 117 | 102 | 72.1 | 27.3 | 2.2 | 2.04 | 109 | 115 | 77.3 | 110 | 106 | 119 | 95.9 | 94.2 | 77.8 | viability, T/C [10]: 15.7%; viability, T/C [11]: 0.7%; viability, T/C [12]: 1.46%; viability, T/C [15]: 66.3%; viability, T/C [16]: 15.6%; viability, T/C [17]: 0.61%; viability, T/C [18]: 3.01%; viability, T/C [21]: 66.2%; viability, T/C [22]: 6.46%; viability, T/C [23]: 1.24%; viability, T/C [24]: 2.12%; viability, T/C [27]: 53.6%; viability, T/C [28]: 2.32%; viability, T/C [29]: 0.59%; viability, T/C [30]: 1.88% |
| Nc1ccn(C2OC(CO)C(O)C2(F)F)c(=O)n1 (stereo not given) + Cc1cncc(-c2nc(NCCc3c[nH]c4ccccc34)c3ncn(C(C)C)c3n2)c1 | 6.42 | 6.21 | 6.09 | 6.54 | < 5.00 | 71.4 | 60.1 | 50.4 | 48.8 | 43.4 | 52 | 83.1 | 62.8 | 51.4 | 71.5 | 60.7 | 81.3 | 70.6 | 76.6 | 88.1 | viability, T/C [10]: 47.3%; viability, T/C [11]: 51.3%; viability, T/C [12]: 43.8%; viability, T/C [15]: 49.5%; viability, T/C [16]: 54.3%; viability, T/C [17]: 45.5%; viability, T/C [18]: 46.7%; viability, T/C [21]: 48.3%; viability, T/C [22]: 45.2%; viability, T/C [23]: 47.8%; viability, T/C [24]: 45.3%; viability, T/C [27]: 78%; viability, T/C [28]: 53.1%; viability, T/C [29]: 54.8%; viability, T/C [30]: 57.1% |
| CC1(C)CCC(CN2CCN(c3ccc(C(=O)NS(=O)(=O)c4ccc(NCC5CCOCC5)c([N+](=O)[O-])c4)c(Oc4cnc5[nH]ccc5c4)c3)CC2)=C(c2ccc(Cl)cc2)C1 + CC(CO)NC(=O)c1cc(-c2ccc(Cl)cc2)nn(-c2cnn(C)c2)c1=O | < 5.00 | < 5.00 | < 5.00 | < 5.00 | < 5.00 | 99.8 | 100 | 98.9 | 98.2 | 106 | 104 | 100 | 101 | 100 | 99.7 | 98.8 | 98.8 | 101 | 104 | 113 | viability, T/C [10]: 101%; viability, T/C [11]: 103%; viability, T/C [12]: 86.9%; viability, T/C [15]: 96.5%; viability, T/C [16]: 109%; viability, T/C [17]: 106%; viability, T/C [18]: 104%; viability, T/C [21]: 108%; viability, T/C [22]: 108%; viability, T/C [23]: 113%; viability, T/C [24]: 99.3%; viability, T/C [27]: 99.9%; viability, T/C [28]: 115%; viability, T/C [29]: 116%; viability, T/C [30]: 96% |
| COc1cccc2c1C(=O)c1c(O)c3c(c(O)c1C2=O)CC(O)(C(=O)CO)CC3OC1CC(N)C(O)C(C)O1 (stereo not given) + Cc1ccccc1N=Nc1ccc(NC(=O)c2ccnn2C)c(C)c1 | 6.18 | 6.18 | 6.18 | 6.19 | 6.06 | 113 | 102 | 79.4 | 36.2 | 3.08 | 7.85 | 101 | 100 | 76.8 | 99.5 | 105 | 91.5 | 93.8 | 97.2 | 92.2 | viability, T/C [10]: 36.7%; viability, T/C [11]: 1.54%; viability, T/C [12]: 5.07%; viability, T/C [15]: 78.5%; viability, T/C [16]: 35.9%; viability, T/C [17]: 2.43%; viability, T/C [18]: 8.49%; viability, T/C [21]: 76.6%; viability, T/C [22]: 34.7%; viability, T/C [23]: 2.43%; viability, T/C [24]: 13%; viability, T/C [27]: 90.7%; viability, T/C [28]: 44.3%; viability, T/C [29]: 2.3%; viability, T/C [30]: 12.7% |
| Cn1ncnc1C1c2n[nH]c(=O)c3cc(F)cc(c23)NC1c1ccc(F)cc1 (stereo not given) + Cc1cncc(-c2nc(NCCc3c[nH]c4ccccc34)c3ncn(C(C)C)c3n2)c1 | < 7.00 | < 7.00 | < 7.00 | < 7.00 | < 7.00 | 99.3 | 96 | – | – | – | – | 110 | 97.8 | – | 109 | 104 | 108 | 103 | 96.6 | 104 | viability, T/C (second compound 0.1 µM, first compound 0.000316 µM): 110%; viability, T/C (second compound 0.1 µM, first compound 0.001 µM): 101%; viability, T/C (second compound 0.1 µM, first compound 0.00316 µM): 114%; viability, T/C (second compound 0.1 µM, first compound 0.01 µM): 104%; viability, T/C (second compound 0.316 µM, first compound 0.000316 µM): 112%; viability, T/C (second compound 0.316 µM, first compound 0.001 µM): 98.6%; viability, T/C (second compound 0.316 µM, first compound 0.00316 µM): 110%; viability, T/C (second compound 0.316 µM, first compound 0.01 µM): 107%; viability, T/C (second compound 1 µM, first compound 0.000316 µM): 103%; viability, T/C (second compound 1 µM, first compound 0.001 µM): 102%; viability, T/C (second compound 1 µM, first compound 0.00316 µM): 109%; viability, T/C (second compound 1 µM, first compound 0.01 µM): 111%; viability, T/C (second compound 3.16 µM, first compound 0.000316 µM): 111%; viability, T/C (second compound 3.16 µM, first compound 0.001 µM): 113%; viability, T/C (second compound 3.16 µM, first compound 0.00316 µM): 126%; viability, T/C (second compound 3.16 µM, first compound 0.01 µM): 96.1%; viability, T/C (second compound 10 µM, first compound 0.000316 µM): 94.5%; viability, T/C (second compound 10 µM, first compound 0.001 µM): 97.8%; viability, T/C (second compound 10 µM, first compound 0.00316 µM): 91.7%; viability, T/C (second compound 10 µM, first compound 0.01 µM): 112% |
| O=C(c1cc(Cc2n[nH]c(=O)c3ccccc23)ccc1F)N1CCN(C(=O)C2CC2)CC1 + Cc1cncc(-c2nc(NCCc3c[nH]c4ccccc34)c3ncn(C(C)C)c3n2)c1 | < 5.00 | < 5.00 | < 5.00 | < 5.00 | < 5.00 | 103 | 102 | 96.1 | 96 | 98.8 | 87.4 | 101 | 101 | 103 | 105 | 90.5 | 113 | 106 | 81.9 | 91.7 | viability, T/C [10]: 94%; viability, T/C [11]: 107%; viability, T/C [12]: 91.2%; viability, T/C [15]: 105%; viability, T/C [16]: 93.4%; viability, T/C [17]: 101%; viability, T/C [18]: 97.7%; viability, T/C [21]: 98.1%; viability, T/C [22]: 99.7%; viability, T/C [23]: 103%; viability, T/C [24]: 99.6%; viability, T/C [27]: 87.4%; viability, T/C [28]: 88.7%; viability, T/C [29]: 86.9%; viability, T/C [30]: 93.8% |
